Assays:
Format in all cases: in vivo
[1] = tested on: Rice; assay: pre-emergent herbicidal test; conditions: O, 4 WAT
Description: (§1) The pre-emergent test was conducted as follows:
(§2) A good grade of top soil was placed in aluminum pans and compactd to a depth of 0.95 to 1.27 cm. from the top of the pan. On the top of the soil was placed a predetermined number of seeds or vegetative propagules of various plant species. The soil required to level fill the pans after seeding or adding vegetative propagules was weighed into a pan. A known amount of the herbicidal active ingredient applied in a solvent or as a wettable powder and the soil were thoroughly mixed, and used as a cover layer for prepared pans. After treatment the pans were moved into a greenhouse bench where they were watered from below as needed to give adequate moisture for germination and growth.
(§3) A herbicidal rating code was used to signify the extent of phytotoxicity of each species. The ratings are defined as follows: […]

[2] = tested on: Panicum Spp; assay: pre-emergent herbicidal test; conditions: S, 4 WAT
Description: as §1, §2, §3

[3] = tested on: Sorghum; assay: pre-emergent herbicidal test; conditions: P, 4 WAT
Description: as §1, §2, §3

[4] = tested on: Sugar Beet; assay: pre-emergent herbicidal test; conditions: M, 4 WAT
Description: as §1, §2, §3

[5] = tested on: Soybean; assay: pre-emergent herbicidal test; conditions: L, 4 WAT
Description: as §1, §2, §3

[6] = tested on: Hemp Sesbania; assay: pre-emergent herbicidal test; conditions: R, 4 WAT
Description: as §1, §2, §3

[7] = tested on: Wheat; assay: pre-emergent herbicidal test; conditions: N, 4 WAT
Description: as §1, §2, §3

[8] = tested on: Wild Buckwheat; assay: pre-emergent herbicidal test; conditions: Q, 4 WAT
Description: as §1, §2, §3

[9] = tested on: Crabgrass; assay: pre-emergent herbicidal test; conditions: T, 4 WAT
Description: as §1, §2, §3

[10] = tested on: Rice; assay: post-emergent herbicidal test; conditions: O, 4 WAT
Description: (§4) The post-emergent tests were conducted as follows:
(§5) The herbicidal active ingredients are applied in spray form to two or three-week old specimens of various plant species. The spray, a solution or wettable powder suspension containing the appropriate rate of herbicidal active ingredient to give the desired test rate and a surfactant, is applied to the plants. The treated plants are placed in a greenhouse and approximately two or four weeks later the effects are observed and recorded. The results are shown in Tables IX and X in which the post-emergent herbicidal rating code is as follows: […]

[11] = tested on: Panicum Spp; assay: post-emergent herbicidal test; conditions: S, 4 WAT
Description: as §4, §5

[12] = tested on: Sorghum; assay: post-emergent herbicidal test; conditions: P, 4 WAT
Description: as §4, §5

[13] = tested on: Sugar Beet; assay: post-emergent herbicidal test; conditions: M, 4 WAT
Description: as §4, §5

[14] = tested on: Soybean; assay: post-emergent herbicidal test; conditions: L, 4 WAT
Description: as §4, §5

[15] = tested on: Hemp Sesbania; assay: post-emergent herbicidal test; conditions: R, 4 WAT
Description: as §4, §5

[16] = tested on: Wheat; assay: post-emergent herbicidal test; conditions: N, 4 WAT
Description: as §4, §5

[17] = tested on: Wild Buckwheat; assay: post-emergent herbicidal test; conditions: Q, 4 WAT
Description: as §4, §5

[18] = tested on: Crabgrass; assay: post-emergent herbicidal test; conditions: T, 4 WAT
Description: as §4, §5
Note: ranges in brackets are in %.

CCOC(=N)Cn1c(=O)sc2ccccc21 [Compound 12]
pre-emergent herbicidal rating ([1]; 1.12 kg/h): 0 (0-24) | pre-emergent herbicidal rating ([1]; 5.6 kg/h): 0 (0-24) | pre-emergent herbicidal rating ([2]; 1.12 kg/h): 0 (0-24) | pre-emergent herbicidal rating ([2]; 5.6 kg/h): 0 (0-24) | pre-emergent herbicidal rating ([3]; 1.12 kg/h): 0 (0-24) | pre-emergent herbicidal rating ([3]; 5.6 kg/h): 0 (0-24) | pre-emergent herbicidal rating ([4]; 1.12 kg/h): 3 (75-100) | pre-emergent herbicidal rating ([4]; 5.6 kg/h): 3 (75-100) | pre-emergent herbicidal rating ([5]; 1.12 kg/h): 1 (25-49) | pre-emergent herbicidal rating ([5]; 5.6 kg/h): 2 (50-74) | pre-emergent herbicidal rating ([6]; 1.12 kg/h): 1 (25-49) | pre-emergent herbicidal rating ([6]; 5.6 kg/h): 2 (50-74) | pre-emergent herbicidal rating ([7]; 1.12 kg/h): 0 (0-24) | pre-emergent herbicidal rating ([7]; 5.6 kg/h): 1 (25-49) | pre-emergent herbicidal rating ([8]; 1.12 kg/h): 1 (25-49) | pre-emergent herbicidal rating ([8]; 5.6 kg/h): 1 (25-49) | pre-emergent herbicidal rating ([9]; 1.12 kg/h): 0 (0-24) | pre-emergent herbicidal rating ([9]; 5.6 kg/h): 0 (0-24) | post-emergent herbicidal rating ([10]; 0.28 kg/h): 0 (0-24) | post-emergent herbicidal rating ([10]; 1.12 kg/h): 0 (0-24) | post-emergent herbicidal rating ([10]; 5.6 kg/h): 0 (0-24) | post-emergent herbicidal rating ([11]; 0.28 kg/h): 0 (0-24) | post-emergent herbicidal rating ([11]; 1.12 kg/h): 0 (0-24) | post-emergent herbicidal rating ([11]; 5.6 kg/h): 0 (0-24) | post-emergent herbicidal rating ([12]; 0.28 kg/h): 0 (0-24) | post-emergent herbicidal rating ([12]; 1.12 kg/h): 0 (0-24) | post-emergent herbicidal rating ([12]; 5.6 kg/h): 0 (0-24) | post-emergent herbicidal rating ([13]; 0.28 kg/h): 1 (25-49) | post-emergent herbicidal rating ([13]; 1.12 kg/h): 2 (50-74) | post-emergent herbicidal rating ([13]; 5.6 kg/h): 3 (75-99) | post-emergent herbicidal rating ([14]; 0.28 kg/h): 1 (25-49) | post-emergent herbicidal rating ([14]; 1.12 kg/h): 1 (25-49) | post-emergent herbicidal rating ([14]; 5.6 kg/h): 2 (50-74) | post-emergent herbicidal rating ([15]; 0.28 kg/h): 1 (25-49) | post-emergent herbicidal rating ([15]; 1.12 kg/h): 2 (50-74) | post-emergent herbicidal rating ([15]; 5.6 kg/h): 3 (75-99) | post-emergent herbicidal rating ([16]; 0.28 kg/h): 0 (0-24) | post-emergent herbicidal rating ([16]; 1.12 kg/h): 0 (0-24) | post-emergent herbicidal rating ([16]; 5.6 kg/h): 1 (25-49) | post-emergent herbicidal rating ([17]; 0.28 kg/h): 1 (25-49) | post-emergent herbicidal rating ([17]; 1.12 kg/h): 2 (50-74) | post-emergent herbicidal rating ([17]; 5.6 kg/h): 3 (75-99) | post-emergent herbicidal rating ([18]; 0.28 kg/h): 0 (0-24) | post-emergent herbicidal rating ([18]; 1.12 kg/h): 0 (0-24) | post-emergent herbicidal rating ([18]; 5.6 kg/h): 0 (0-24)

Reference: patent publication US4228292A, “N-Substituted benzothiazolines and benzoxazolines and their use as herbicides and plant growth regulants” (Monsanto Company, priority 1978, dated 1980)
